Assay results reported in patent publication US20250152567A1, “COMPOUNDS FOR USE IN THE TREATMENT OF DYSTROPHINOPATHIES” (SOM INNOVATION BIOTECH, S.A., priority 2022, published 2025).
Structures can show the parent of a compound that is named as a salt.

Experiments:
utrophin-A expression = assay: Utrophin upregulation in mdx^5cv myotubes (qRT-PCR for utrophin-A expression); format: cell-based; conditions: Mus musculus, Myotube, 72 h, 3 days, RT-PCR, read-out: Utrophin upregulation (average of fold change utrophin vs DMSO ± sem)
Method: Isolation of satellite cell-derived primary myoblasts was performed via cell-surface antibodies and magnetic separation as previously described, and cultured for their expansion (Motohashi et al., J Vis Exp. 2014 Apr. 8; (86): 50846). Briefly, after collagenase (Worthington, CLS-2) treatment, dissociated cells from mdx^5cv mouse hindlimb muscle were incubated with anti-CD31 monoclonal antibody conjugated to phycoerythrin (eBioscience, 12-0311), anti-CD45 monoclonal antibody conjugated to phycoerythrin (eBioscience, 30-F11), anti-Scal monoclonal antibody conjugated to phycoerythrin (eBioscience, Dec-81) and anti-Integrin a7 (MBL International, ABIN487462), followed by anti-PE microbeads (Miltenyi Biotec, 130-048-801), and then performed LD column (Miltenyi Biotec, 130-042-901) separation. Negative cell populations were incubated with anti-Mouse IgG beads (Miltenyi Biotec, 130-048-402), and then MS column (Miltenyi Biotec, 130-042-201) separation was performed to isolate Integrin a7 (+) satellite cells. Satellite cell-derived mdx^5cv myoblasts were maintained in culture on collagen coated plates in myoblast medium containing 20% FBS and 20 ng/ml bFGF (Invitrogen, PHG0263) in HAM's-F10 medium. Cell cultures were maintained in a humidified incubator at 37° C. with 5% CO2 and 5% 02. The mdx^5cv myoblasts were induced to differentiate into multinucleated myotubes after low serum conditions (DMEM supplemented with 5% horse serum).
Halofuginone was obtained from Selleck. Veliflapon and cloricromen HCl were obtained from Sigma. Fabomotizole HCl was obtained from MedChemExpress. Difenpiramide was obtained from Enamine. Amopyroquine and alpelisib were obtained from Carbosynth. Benorilate and xipamide were obtained from Fluorochem. Altizide was obtained from Toronto Research Chemicals. All chemical compounds were dissolved with 100% DMSO to adjust to 10 mM stock solutions.
Every day compounds were added to mdx^5cv myotubes at different concentrations (0.01 to 10 μM) by replacement of the differentiation medium. After 3 days compound exposure, cells were harvested for RNA preparation by TRIzol reagent (15596026, ThermoFisher Scientific). Isolated RNA was used for cDNA synthesis using the Transcriptor First Strand cDNA synthesis kit (04379012001, Roche Molecular Diagnostics) using random primers. Diluted DMSO solution was used as a negative control vehicle. qRT-PCR assay for utrophin-A expression was performed using the following primers: Utro-F1 (Forward) 5′-[…]-3′ (SEQ ID NO: 1) and Utro-R1 (Reverse) 5′-[…]-3′ (SEQ ID NO: 2). 18S rRNA was used as an internal control, with the following primers: 18S-F1 (Forward) 5′-[…]-3′ (SEQ ID NO: 3) and 18S-R1 (Reverse) 5′-[…]-3′ (SEQ ID NO: 4). qPCR was performed using GoTaq qPCR Master Mix (A6001, Promega). All primers were synthesized as custom DNA oligos from Integrated DNA technologies (IDT). Analysis was done using the ACt method. Statistical analysis was performed with at least three independent experiments with between 2 and 4 replicates in each experiment.
The chemical compounds were tested in mdx^5cv myotubes at different concentrations for 3 days. Halofuginone was used as a positive control for the utrophin up-regulation.

[1] = system: DMD patient-derived 3D skeletal muscle tissues; assay: Force of muscle contraction in response to electrical pulse stimulation in human 3D skeletal muscle tissues; format: cell-based; conditions: 10 μM; for tetanic index (maximal tetanic specific force / maximal twitch specific force): 2 days (FIG. 3); for maximal twitch contractile force in response to electrical stimulation / tetanic contractile force in response to electrical stimulation: 2 days; for maximal twitch contractile force in response to electrical stimulation: 1 Hz EPS, compared with DMSO treated cells (FIG. 1); for tetanic contractile force in response to electrical stimulation: 50 Hz EPS, compared with DMSO treated cells (FIG. 2)
Method: Fabrication of Human 3D Skeletal Muscle Tissues and Treatment Human 3D skeletal muscle tissues were fabricated using polydimethylsiloxane (PDMS; Sylgard 184 silicone elastomer kit, Dow Corning) casting molds developed and fabricated as described in Fernández-Costa et al. 2022. Briefly, the casting molds design consists of a square-shaped pool, where the cells/hydrogel solution is seeded, and two vertical, flexible PDMS pillars. PDMS casting molds were prepared for muscle cell culture by first cleaning them by sonication on water with soap, 2-propanol, and Mili-Q water and sterilized with UV light for 15 min. It was followed by 1 h treatment with 1% Plurionic® F-127 (Sigma-Aldrich) solution in cold PBS (100 μl/well) at 4° C. Human 3D skeletal muscle tissues were generated using Immortalized human muscle satellite cells (iHuMSCs) from a DMD patient (DMD 2, clone G82) (Massenet et al. 2020). iHuMSCs were cultured in growth medium (skeletal muscle basal medium (PromoCell GmbH), skeletal muscle supplemental mix (PromoCell GmbH), 10% Fetal Bovine Serum (FBS) (Gibco™), 100 U/mL penicillin and 100 μg/ml streptomycin (Gibco™)). iHuMSCs were released from culture flasks via mild trypsinization. Cells were encapsulated at 2.5×10^7 cells/ml in a cell/hydrogel mixture of 30% v/v Corning® Matrigel® Growth Factor Reduced (GFR) Basement Membrane Matrix (Corning®), 2 units of thrombin from human plasma (Sigma-Aldrich) and 4 mg/mL of fibrinogen from human plasma (50% v/v) (Sigma-Aldrich). 35 μl was pipetted within each PDMS casting mold using cool tips to avoid premature polymerization.
The cell/hydrogel mixture was polymerized for 30 min at 37° C. followed by incubation in growth medium containing 1 mg/mL of 6-aminocaproic acid (ACA) (Sigma-Aldrich). ACA works as an antifibrinolytic, which avoids fibrin depolymerization. They were kept in growth media for two days and then switched to differentiation medium (Dulbecco's Modified Eagle Medium, high glucose, GlutaMAX™ Supplement (Gibco™), containing 1% KnockOut™ Serum replacement (Gibco™), 1% Insulin-Transferrin-Selenium-Ethanolamine (Gibco™) and 1% Penicillin-Streptomycin-Glutamine (Gibco™)) containing 1 mg/mL of ACA for seven days. Half of the volume of differentiation medium was replaced every two days. After five days of differentiation, the medium was replaced by differentiation medium with the drugs at 10 μM and 0.01% DMSO final concentration. The treatment was kept for 48 hours.
Human 3D skeletal muscle tissues were electrically stimulated after seven days of differentiation to induce muscle contraction. A custom-made device consisted of a 12-well plate with two graphite electrodes per well located on the lid was used to perform the EPS. PDMS casting molds were placed on a 12-well plate with fresh differentiation medium. The plate was placed on a Zeiss Axio Observer Z1/7 outfitted with the XL S1 cell incubator at 37° C. and 5% CO2. The device was connected to a pulse generator (Multifunction Generator WF1974, NF Corporation), and tissues were stimulated with electrical square-wave pulses of 1 V/mm, 1 ms of pulse width, and frequencies varying from 1 to 50 Hz. The contractibility in response of EPS of 1 Hz of frequency was evaluated to study twitch contraction dynamics. On the other hand, 50 Hz of frequency was applied to induce tetanic contractions.
Videos of the movement of the pillar of the casting molds in response to the muscle contractions were taken with a ZEISS Axio Observer Z1/7 microscope. Cross-sectional area and location of the tissues on the axis of the pillars were also recorded during the assay. Videos were analyzed using a custom-made Python script and the specific force performed from the tissues was calculated applying […] together with the calculated displacement of the pillar as done in Mestre et al. 2018. Tetanic index was calculated as the ratio between the maximal tetanic specific force divided by the maximal twitch specific force. […]

| Structure (SMILES) | fold induction at 0.1 µM (utrophin-A expression) | fold induction at 1 µM (utrophin-A expression) | fold induction at 10 µM (utrophin-A expression) | tetanic index (maximal tetanic specific force / maximal twitch specific force) [1] | maximal twitch contractile force in response to electrical stimulation [1] | tetanic contractile force in response to electrical stimulation [1] |
| --- | --- | --- | --- | --- | --- | --- |
| Cc1nc(NC(=O)N2CCC[C@H]2C(N)=O)sc1-c1ccnc(C(C)(C)C(F)(F)F)c1 [Alpelisib] | 1.08 ± 0.09 | 1.45 ± 0.11 | 1.4 ± 0.13 | – | – | – |
| C=CCSCC1Nc2cc(Cl)c(S(N)(=O)=O)cc2S(=O)(=O)N1 (stereo not drawn) [Altizide] | 1.09 ± 0.07 | 1.33 ± 0.09 | 1.33 ± 0.09 | – | – | – |
| Oc1ccc(Nc2ccnc3cc(Cl)ccc23)cc1CN1CCCC1 [Amopyroquine] | 1.23 ± 0.11 | 1.1 ± 0.14 | 1.23 ± 0.37 | – | – | – |
| CC(=O)Nc1ccc(OC(=O)c2ccccc2OC(C)=O)cc1 [Benorilate] | 1.16 ± 0.12 | 1.04 ± 0.16 | 1.58 ± 0.29 | – | – | – |
| CCOC(=O)COc1ccc2c(C)c(CCN(CC)CC)c(=O)oc2c1Cl [Cloricromen hydrochloride, Cloricromen] | 1.06 ± 0.19 | 1.07 ± 0.22 | 1.34 ± 0.13 | – | – | – |
| O=C(Cc1ccc(-c2ccccc2)cc1)Nc1ccccn1 [Difenpiramide] | 1.24 ± 0.13 | 1.1 ± 0.21 | 1.23 ± 0.21 | significant increase | increase | increase |
| CCOc1ccc2[nH]c(SCCN3CCOCC3)nc2c1 [Fabomotizole hydrochloride, Fabomotizole] | 1.34 ± 0.07 | 1.04 ± 0.1 | 1.34 ± 0.19 | – | – | – |
| O=C(CC1NCCCC1O)Cn1cnc2cc(Br)c(Cl)cc2c1=O (stereo not drawn) [Halofuginone] | 1.44 ± 0.37 | 1.24 ± 0.1 | 1.3 ± 0.04 | – | – | – |
| O=C(O)[C@@H](c1ccc(OCc2ccc3ccccc3n2)cc1)C1CCCC1 [Veliflapon] | 1.43 ± 0.24 | 1.35 ± 0.02 | 1.05 ± 0.15 | significant increase | increase | increase |
| Cc1cccc(C)c1NC(=O)c1cc(S(N)(=O)=O)c(Cl)cc1O [Xipamide] | 1.25 ± 0.18 | 1.05 ± 0.17 | 1.18 ± 0.1 | – | – | – |
